Each block holds one molecule with its values, some of them ahead of it.
What was measured:
[1] = test system: dopamine metabolites HVA and DOPAC in the brain; test: Example 1: brain dopamine metabolites (HVA, DOPAC) in adrenalectomized rats with corticosterone or placebo pellets; format: in vivo, rat; details: vehicle (placebo) pellet animals; haloperidol 1 mg/kg s.c. or clozapine 15 mg/kg s.c. two hours prior to sacrifice
Experimental: The implanted pellets contained either 100 mg corticosterone (for haloperidol experiments), 50 mg corticosterone (for clozapine experiments) or placebo. Two hours prior to sacrifice the animals were injected with either haloperidol (1 mg/kg s.c; RBI Natick, Mass.) or an equivalent volume of vehicle (0.3% tartaric acid, pH 5.3) or with either clozapine (15 mg/kg s.c.; RBI, Natick, Mass.) or vehicle (0.9% saline plus 0.8% acetic acid).
Animals were sacrificed by decapitation during the first four hours of the light cycle, blood collected and brains removed and frozen on dry ice and stored at −80° C. Corticosterone was measured in plasma by radioimmunoassay (ICN Biochem, Costa Mesa, Calif.) to confirm adrenalectomy and corticosterone replacement. […] Brain regions were dissected within 24-72 hours of slicing. Tissue was placed in 0.1 M perchloric acid with 0.1 mM EDTA and stored for no longer than 2 weeks at −80° C.
Dopamine metabolites homovanillic acid (HVA) and dihydroxyphenylacetic acid (DOPAC) were measured in the brains of the experimental animals. Samples were thawed, homogenized by sonication in 0.1 M perchloric acid/0.1 mM EDTA, and centrifuged for 2 minutes. Tissue pellets were dissolved in 1.0 N NaOH for protein determination (Bio-Rad, Richmond, Calif.). […] DOPAC and HVA were detected using an electrochemical detector. […]

[2] = in vivo; cited from earlier work
[3] = test system: sensitive bacterial strains; details: cited from earlier work
[4] = test system: dopamine metabolites HVA and DOPAC in the brain; test: Example 2: brain dopamine metabolites (HVA, DOPAC) in rats given mifepristone or placebo pellet; format: in vivo, rat; details: mifepristone 200 mg 10-day sustained-release pellet
Experimental: Rats (male Sprague Dawley 175-200 grams) are maintained, 3 rats per cage, under controlled temperature and lighting (12 hours light/12 hours dark) with food and water ad libitum. […] Two hours prior to sacrifice the animals are injected with either haloperidol (1 mg/kg s.c; […] RBI, Natick, Mass.) or vehicle (0.9% saline plus 0.8% acetic acid). Animal sacrifice is by decapitation during the first four hours of the light cycle. Blood is collected and brains removed and frozen on dry ice for storage at −80° C. Frozen brains are sliced into 250 μm sections with a cryostat. The medial prefrontal cortex (AP 13.7 to 12.2 mm) is dissected with a scalpel, the striatum (AP 10.7 to 9.7 mm) is removed with stainless steel cannulae from frozen slices and the core and shell of the nucleus accumbens (AP 10.7 to 9.7 mm) is removed. Brain regions are dissected within 24-72 hours of slicing. […] Dopamine metabolites homovanillic acid (HVA) and dihydroxyphenylacetic acid (DOPAC) are measured in the brains of the experimental animals. […] DOPAC and HVA were detected using an electrochemical detector. […] Brain clozapine levels are analyzed by National Medical Services, Inc. (Willow Grove, PN) while brain and plasma haloperidol and reduced haloperidol and plasma clozapine levels are analyzed by Analytical Psychopharmacology Laboratories (Nathan Kline Institute, Orangeburg, N.Y.), both by gas chromotography.

[5] = test system: blood-brain barrier (BBB) permeability; test: Example 2: brain haloperidol and clozapine levels in rats given mifepristone or placebo pellet; format: in vivo, rat; details: mifepristone 200 mg 10-day sustained-release pellet
Experimental: Animal sacrifice is by decapitation during the first four hours of the light cycle. Blood is collected and brains removed and frozen on dry ice for storage at −80° C.

[6] = test system: blood-brain barrier (BBB) permeability; test: Example 3: brain Amphotericin B concentration in rats given mifepristone or placebo; format: in vivo, rat; details: mifepristone 200 mg 10-day sustained release pellet; Amphotericin B 0.1 mg i.v.
[7] = test system: blood-brain barrier (BBB) permeability; test: Example 4: brain ampicillin concentration in rats given mifepristone or placebo; format: in vivo, rat; details: mifepristone 200 mg 10-day sustained release pellet; ampicillin 1.5 mg i.v.
Experimental: Animal sacrifice is by decapitation during the first four hours of the light cycle. Blood is collected and brains removed and frozen on dry ice for storage at −80° C. Ampicillin concentration is measured in the brains of the experimental animals.

[8] = test system: blood-brain barrier (BBB) permeability; test: Example 5: brain methotrexate concentration in rats given mifepristone or placebo; format: in vivo, rat; details: mifepristone 200 mg 10 day sustained-release pellet; methotrexate 0.5 mg i.v.
Experimental: Animal sacrifice is by decapitation during the first four hours of the light cycle. Blood is collected and brains removed and-frozen on dry ice for storage at −80° C. Methotrexate concentration is measured in the brains of the experimental animals.

[9] = test system: blood-brain barrier (BBB) permeability; test: Example 6: brain adriamycin concentration in rats given mifepristone or placebo; format: in vivo, rat; details: mifepristone 2 mg s.c. four hours prior to sacrifice; adriamycin 0.5 mg i.v.
Experimental: Animal sacrifice is by decapitation during the first four hours of the light cycle. Blood is collected and brains removed and frozen on dry ice for storage at −80° C. Adriamycin concentration is measured in the brains of the experimental animals.

Compound: O=C(CCCN1CCC(O)(c2ccc(Cl)cc2)CC1)c1ccc(F)cc1 [haloperidol]
- levels of HVA and DOPAC in the brain [1]: elevated

Compound: Nc1nc2c(ncn2COCCO)c(=O)[nH]1 [Acyclovir, acyclovir]
- concentrations achieved in the CNS as share of those achieved in plasma [2]: 30-50%

Compound: O=C(N[C@H](CO)[C@H](O)c1ccc([N+](=O)[O-])cc1)C(Cl)Cl [Chloramphenicol, chloramphenicol]
- concentration effective against sensitive bacterial strains [3]: ≤ 8 µg/mL

- brain concentration of clozapine, mifepristone-treated vs placebo ([5]; clozapine 15 mg/kg s.c.): greater
- brain concentration of haloperidol, mifepristone-treated vs placebo ([5]; haloperidol 1 mg/kg s.c.): greater
- brain Amphotericin B concentration, mifepristone-treated vs placebo [6]: greater
- brain ampicillin concentration, mifepristone-treated vs placebo [7]: greater
- brain methotrexate concentration, mifepristone-treated vs placebo [8]: greater
- brain adriamycin concentration, mifepristone-treated vs placebo [9]: greater
Compound: CC#C[C@]1(O)CC[C@H]2[C@@H]3CCC4=CC(=O)CCC4=C3[C@@H](c3ccc(N(C)C)cc3)C[C@@]21C [mifepristone, (11,17)-11-[4-(dimethylmino)phenyl]-17-hydroxy-17-(1-propynyl)estra-4,9-dien-3-one]
- increase in brain dopamine metabolite levels following clozapine, mifepristone-treated vs placebo ([4]; clozapine 15 mg/kg s.c.): greater
- increase in brain dopamine metabolite levels following haloperidol, mifepristone-treated vs placebo ([4]; haloperidol 1 mg/kg s.c.): greater
